The test system of data set [1] is rat duodenum, jejunum and ileum. Details: method as in PMID 15296954, PMID 8893271. The note with it: reference compounds; cited from earlier work.
The test system is the same in data set [2]. Briefly: In situ single-pass intestinal perfusion (SPIP). The note with it: perfusate 40 μg/mL, n = 6. The procedure: The blank perfusion buffer solution was composed of 9.80 g Hanks’ Balanced Salts, 5.96 g 4-2(Hydroxyethyl) piperazine-1-ethanesulfonic acid (HEPES), 1.16 g NaCl, 3.50 g D-glucose and 0.37 g NaHCO3. The pH was adjusted to 6.5. […] The perfusate containing 2 μg/mL of NCE with and without 0.4% SDS was applied to three intestinal segments to investigate the effect of SDS on intestinal absorption of NCE. To examine whether there was any concentration-dependent characteristics or site specific absorption of NCE, 2, 20 and 40 μg/mL of NCE containing 0.4% SDS (w/v) were also studied in three intestinal segments using the same rat perfusion model.
Male Sprague-Dawley rats (170–230 g) were obtained from the Laboratory Animal Center, Sichuan University (Chengdu, China). Prior to the experiment, animals were fasted for at least 18 h with free access to water. All animal studies were approved and supervised by the State Key Laboratory of Biotherapy Animal Care and Use Committee (Sichuan University, Chengdu, Sichuan, China). Then, single pass intestine perfusion studies were conducted according to the literature. In brief, rats were anaesthetized by pentobarbital sodium (i.p., […]) and placed on a homeothermic pad to maintain their body temperature. After making a 3–4 cm midline abdominal incision, the small intestinal was exposed. The duodenum, jejunum and ileum were isolated as follows: duodenum segment beginning from 1 cm away from pylorus, jejunum segment beginning from 20 cm away from pylorus and ileum segment beginning at the site 20 cm upwards caecum. Each intestinal segment was approximately 10 cm long. After removing the intestinal content by rinsing with warm saline, two glass cannulas were inserted to the distal and proximal end of the segment. Then, the intestinal segments of interest were connected to a perfusion pump and the outlet tubing was placed at the same height as the inlet. The intestine was handled carefully to maintain an intact blood supply.
The segments were rinsed with perfusate at the rate of 1.0 mL/min for 10 min, and then perfused at the rate of 0.2 mL/min for 30 min to maintain a steady-state. The time was set zero immediately when the perfusion started. The outlet perfused samples were collected every 15 min until 120 min. Then, the samples were centrifuged at 1.3 × 10^4 rpm for 10 min. The supernatant was analyzed by HPLC. The length of tested segments was measured and rats were euthanized after experiment.
Peff is the quantitative parameter estimating the passage rate of a solute across a membrane. It was calculated from the steady-state concentration of NCE in the perfusate. The drug concentration in the perfusate was corrected for changes in the water flux. Meanwhile, the density corrected gravimetric method was employed to calculate the net water flux across the incubated intestinal segment. A known volume of perfusate was weighed using an electronic weighing balance to determine the density of the collected samples. After correcting for water flux, the drug concentration in the effluent perfusate (Cout(cor)), was calculated as following.
(3) Cout(cor)=Cout×Qout/Qin
where Cout is the concentration of tested drug in the effluent perfusates, Qin and Qout are the inlet and outlet flow rate (mL/min), respectively, which are adjusted for liquid density (mL/min).
The calculation of permeability across rat intestinal segment was performed from the intestinal perfusate samples collected over 15–120 min (steady state) using the following equation).
(4) Peff=-Qin ln(Cout(cor)/Cin)/2πrl

Data set [3] deals with rats. Set-up: method as in ref 24 = [24]; 24. Ma N. Wang J. Xu F. Li J. Li Y. Xiao H. Xiang D. Studies on absorptive characters of resveratrol derivative (e)-3,5,4′-trimethoxystilbene in rat intestine Chin. J. Pharm. Anal 2010 30 586 591. The note with it: in perfusion buffer, preliminary experiments; cited from earlier work.

On to `CNC(=C[N+](=O)[O-])NCCSCc1ccc(CN(C)C)o1` [Ranitidine, reference compound], for which, in data set [1], the permeability class result was “low permeability”. The Peff in data set [2] (Duodenum) is 0.15 ± 0.07 ^* 10^−4 cm/s; in data set [2] (Ileum) it was 0.17 ± 0.02 ^N.S ^* 10^−4 cm/s; in data set [2] (Jejunum) it was 0.19 ± 0.07 ^N.S. ^* 10^−4 cm/s.
Take `Cn1c(=O)c2[nH]cnc2n(C)c1=O` [Theophylline, reference compound]: the Peff in data set [2] (Duodenum) is recorded as 0.74 ± 0.02 ^* 10^−4 cm/s; in data set [2] (Ileum) it was 0.63 ± 0.04 ^N.S. ^* 10^−4 cm/s; in data set [2] (Jejunum), 0.64 ± 0.01 ^N.S. ^* 10^−4 cm/s.
In the case of `CCCCCCCCCCCCOS(=O)(=O)[O-].[Na+]` [SDS, sodium dodecyl sulfate], the “concentration toxic to rats” value in data set [3] was “higher than 1%”.

The record behind these values is article PMC4057667, “Study on Biopharmaceutics Classification and Oral Bioavailability of a Novel Multikinase Inhibitor NCE for Cancer Therapy” (International Journal of Molecular Sciences, 2014).
